# What was measured:
# [1] = biological target: T1, 5-hydroxytryptamine receptor 1A (Homo sapiens, UniProt P08908); assay: Binding affinity towards human 5-hydroxytryptamine 1A receptor was determined using [3H]8-OH-DPAT-as radioligand
# T1 sequence (P08908 whole entry): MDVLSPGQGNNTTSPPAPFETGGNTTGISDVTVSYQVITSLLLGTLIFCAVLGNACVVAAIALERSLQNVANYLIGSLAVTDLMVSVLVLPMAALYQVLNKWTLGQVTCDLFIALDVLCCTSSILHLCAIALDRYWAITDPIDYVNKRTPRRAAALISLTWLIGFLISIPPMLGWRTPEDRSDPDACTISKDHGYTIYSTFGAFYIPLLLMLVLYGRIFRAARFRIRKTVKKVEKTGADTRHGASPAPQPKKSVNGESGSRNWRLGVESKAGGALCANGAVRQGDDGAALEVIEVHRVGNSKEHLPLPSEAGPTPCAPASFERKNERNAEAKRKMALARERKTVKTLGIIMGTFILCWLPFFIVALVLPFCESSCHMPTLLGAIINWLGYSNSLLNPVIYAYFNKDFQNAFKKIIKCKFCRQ
# [2] = biological target: 5-hydroxytryptamine receptor 2A (Rattus norvegicus, UniProt P14842); assay: Binding affinity towards rat 5-hydroxytryptamine 2A receptor was determined using [125I]- DOI as radioligand
# [3] = biological target: T2, 5-hydroxytryptamine receptor 2C (Rattus norvegicus, UniProt P08909); assay: Binding affinity towards rat 5-hydroxytryptamine 2C receptor was determined using [125I]- DOI as radioligand
# T2 sequence (P08909 whole entry): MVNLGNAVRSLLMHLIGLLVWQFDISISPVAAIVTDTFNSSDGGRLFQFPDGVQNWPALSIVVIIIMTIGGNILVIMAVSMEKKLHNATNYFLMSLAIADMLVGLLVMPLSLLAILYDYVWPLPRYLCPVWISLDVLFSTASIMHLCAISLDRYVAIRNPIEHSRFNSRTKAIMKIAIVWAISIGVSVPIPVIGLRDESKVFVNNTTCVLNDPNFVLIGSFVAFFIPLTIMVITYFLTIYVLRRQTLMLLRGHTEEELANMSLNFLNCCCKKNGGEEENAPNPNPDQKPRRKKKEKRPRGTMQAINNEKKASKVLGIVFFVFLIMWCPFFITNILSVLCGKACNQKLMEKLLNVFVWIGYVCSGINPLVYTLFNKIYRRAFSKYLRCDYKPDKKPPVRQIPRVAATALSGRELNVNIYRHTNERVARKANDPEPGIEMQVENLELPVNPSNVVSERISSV
# [4] = tested on: Rattus norvegicus; assay: Percentage of animals failed to emit 50 responses within 5 min at 0.063 umol/kg in LY-293284-trained rats; format: functional
# [5] = tested on: Rattus norvegicus; assay: Percentage of animals failed to emit 50 responses within 5 min at 0.125 umol/kg in DOI-trained rats; format: functional
# [6] = tested on: Rattus norvegicus; assay: Percentage of animals failed to emit 50 responses within 5 min at 0.125 umol/kg in LSD-trained rats; format: functional
# [7] = tested on: Rattus norvegicus; assay: Percentage of animals failed to emit 50 responses within 5 min at 0.125 umol/kg in LY-293284-trained rats; format: functional
# [8] = tested on: Rattus norvegicus; assay: Percentage of animals failed to emit 50 responses within 5 min at 0.25 umol/kg in DOI-trained rats; format: functional
# [9] = tested on: Rattus norvegicus; assay: Percentage of animals failed to emit 50 responses within 5 min at 0.25 umol/kg in LSD-trained rats; format: functional
# [10] = tested on: Rattus norvegicus; assay: Percentage of animals failed to emit 50 responses within 5 min at 0.25 umol/kg in LY-293284-trained rats; format: functional
# [11] = tested on: Rattus norvegicus; assay: Percentage of animals failed to emit 50 responses within 5 min at 0.5 umol/kg in DOI-trained rats; format: functional
# [12] = tested on: Rattus norvegicus; assay: Percentage of animals failed to emit 50 responses within 5 min at 0.5 umol/kg in LSD-trained rats; format: functional
# [13] = tested on: Rattus norvegicus; assay: Percentage of animals failed to emit 50 responses within 5 min at 0.5 umol/kg in LY-293284-trained rats; format: functional
# [14] = tested on: Rattus norvegicus; assay: Percentage of animals failed to emit 50 responses within 5 min at 1 umol/kg in LSD-trained rats; format: functional
# [15] = tested on: Rattus norvegicus; assay: Percentage of animals failed to emit 50 responses within 5 min at 1 umol/kg in LY-293284-trained rats; format: functional
# [16] = tested on: Rattus norvegicus; assay: Percentage of animals tested that selected the training compound appropriate level at 0.063 umol/kg in LY-293284-trained rats; format: functional
# [17] = tested on: Rattus norvegicus; assay: Percentage of animals tested that selected the training compound appropriate level at 0.125 umol/kg in DOI-trained rats; format: functional
# [18] = tested on: Rattus norvegicus; assay: Percentage of animals tested that selected the training compound appropriate level at 0.125 umol/kg in LSD-trained rats; format: functional
# [19] = tested on: Rattus norvegicus; assay: Percentage of animals tested that selected the training compound appropriate level at 0.125 umol/kg in LY-293284-trained rats; format: functional
# [20] = tested on: Rattus norvegicus; assay: Percentage of animals tested that selected the training compound appropriate level at 0.25 umol/kg in DOI-trained rats; format: functional
# [21] = tested on: Rattus norvegicus; assay: Percentage of animals tested that selected the training compound appropriate level at 0.25 umol/kg in LSD-trained rats; format: functional
# [22] = tested on: Rattus norvegicus; assay: Percentage of animals tested that selected the training compound appropriate level at 0.25 umol/kg in LY-293284-trained rats; format: functional
# [23] = tested on: Rattus norvegicus; assay: Percentage of animals tested that selected the training compound appropriate level at 0.5 umol/kg in DOI-trained rats; format: functional
# [24] = tested on: Rattus norvegicus; assay: Percentage of animals tested that selected the training compound appropriate level at 0.5 umol/kg in LSD-trained rats; format: functional
# [25] = tested on: Rattus norvegicus; assay: Percentage of animals tested that selected the training compound appropriate level at 1 umol/kg in LSD-trained rats; format: functional
# [26] = tested on: Rattus norvegicus; assay: Percentage of animals tested that selected the training compound appropriate level at 1 umol/kg in LY-293284-trained rats; format: functional
# [27] = tested on: Rattus norvegicus; assay: Percentage of animals tested that selected the training compound appropriate level at 0.5 umol/kg in LY-293284-trained rats; format: functional
# [28] = organism: Rattus norvegicus; assay: Effective concentration required to determined hallucinogen-like activity in LSD-trained rats; format: functional
# 5-hydroxytryptamine receptor 2A, sequence (P14842 whole entry): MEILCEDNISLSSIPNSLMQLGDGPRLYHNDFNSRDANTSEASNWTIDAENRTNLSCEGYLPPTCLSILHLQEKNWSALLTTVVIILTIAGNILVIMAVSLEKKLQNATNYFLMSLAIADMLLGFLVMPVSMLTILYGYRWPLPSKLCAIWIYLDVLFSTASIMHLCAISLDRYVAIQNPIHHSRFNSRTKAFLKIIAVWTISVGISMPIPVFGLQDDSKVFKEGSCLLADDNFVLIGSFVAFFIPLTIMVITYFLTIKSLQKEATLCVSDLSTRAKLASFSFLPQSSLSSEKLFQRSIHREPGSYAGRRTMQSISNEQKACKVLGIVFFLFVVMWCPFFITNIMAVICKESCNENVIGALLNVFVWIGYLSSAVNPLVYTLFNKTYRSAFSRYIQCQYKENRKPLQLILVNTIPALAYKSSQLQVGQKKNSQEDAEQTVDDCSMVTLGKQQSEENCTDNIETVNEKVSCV
compound,measurement,setting,value
COc1ccc2[nH]cc(CCN(C)C)c2c1F,Ki,[1],0.23 nM
COc1ccc2[nH]cc(CCN3CCCC3)c2c1F,Ki,[1],0.12 nM
same,Ki,[2],130 nM
same,Ki,[3],140 nM
same,D,[4],0%
same,D,[5],22%
same,D,[6],10%
same,D,[7],10%
same,D,[8],30%
same,D,[9],53%
same,D,[10],12.5%
same,D,[11],50%
same,D,[12],60%
same,D,[13],66.6%
same,D,[14],78%
same,D,[15],90%
same,SDL,[16],25%
same,SDL,[17],0%
same,SDL,[18],11%
same,SDL,[19],66.6%
same,SDL,[20],29%
same,SDL,[21],57%
same,SDL,[22],100%
same,SDL,[23],50%
same,SDL,[24],75%
same,SDL,[25],67%
same,SDL,[26],100%
same,SDL,[27],100%
COc1cc(CC(C)N)c(OC)cc1I (stereo unspecified),ED50,[28],0.29 µmol/kg
CCCN(CCC)C1CCc2cccc(O)c2C1 (stereo unspecified) [8-OH-DPAT],ED50,[28],0.099 µmol/kg
CCN(CC)C(=O)[C@@H]1C=C2c3cccc4[nH]cc(c34)C[C@H]2N(C)C1 [LYSERGIDE],ED50,[28],0.026 µmol/kg

# Source: ChEMBL document CHEMBL1134432 (Bioorg Med Chem Lett, 2001)
